System: 935938-334-R-J1-PDC complex spheroid viability
Assay: Anticancer human tumor 935938-334-R-J1-PDC patient-derived small intestine adenocarcinoma cell line growth inhibition [POLQ]
Conditions: for IC50: curve of first compound; for viability, T/C: stronger effect = lower value
Outline: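 Complex spheroid viability model combining PDC tumour cells with endothelial (HUVEC) and MSC stromal cells. Novobiocin, ART-558 or RP6685 were tested singly and in combination with standard and investigational anticancer drugs. Each was titrated in half-log steps from near clinical Cmax, or from 10 microM where Cmax was unknown.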

[1] = second compound 0.0316 µM, first compound 0.0316 µM
[2] = second compound 0.0316 µM, first compound 0.1 µM
[3] = second compound 0.0316 µM, first compound 0.316 µM
[4] = second compound 0.0316 µM, first compound 1 µM
[5] = second compound 0.0316 µM, first compound 3.16 µM
[6] = second compound 0.0316 µM, first compound 10 µM
[7] = second compound 0.1 µM, first compound 0.0316 µM
[8] = second compound 0.1 µM, first compound 0.1 µM
[9] = second compound 0.1 µM, first compound 0.316 µM
[10] = second compound 0.1 µM, first compound 1 µM
[11] = second compound 0.1 µM, first compound 3.16 µM
[12] = second compound 0.1 µM, first compound 10 µM
[13] = second compound 0.316 µM, first compound 0.0316 µM
[14] = second compound 0.316 µM, first compound 0.1 µM
[15] = second compound 0.316 µM, first compound 0.316 µM
[16] = second compound 0.316 µM, first compound 1 µM
[17] = second compound 0.316 µM, first compound 3.16 µM
[18] = second compound 0.316 µM, first compound 10 µM
[19] = second compound 1 µM, first compound 0.0316 µM
[20] = second compound 1 µM, first compound 0.1 µM
[21] = second compound 1 µM, first compound 0.316 µM
[22] = second compound 1 µM, first compound 1 µM
[23] = second compound 1 µM, first compound 3.16 µM
[24] = second compound 1 µM, first compound 10 µM
[25] = second compound 3.16 µM, first compound 0.0316 µM
[26] = second compound 3.16 µM, first compound 0.1 µM
[27] = second compound 3.16 µM, first compound 0.316 µM
[28] = second compound 3.16 µM, first compound 1 µM
[29] = second compound 3.16 µM, first compound 3.16 µM
[30] = second compound 3.16 µM, first compound 10 µM
[31] = second compound 10 µM, first compound 0.0316 µM
[32] = second compound 10 µM, first compound 0.1 µM
[33] = second compound 10 µM, first compound 0.316 µM
[34] = second compound 10 µM, first compound 1 µM
[35] = second compound 10 µM, first compound 3.16 µM
[36] = second compound 10 µM, first compound 10 µM
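Also: spheroids exposed to drugs for seven days before viability read.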
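For viability, T/C in this document: 100% = DMSO vehicle control wells.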

SMILES: C#Cc1c(F)ccc2cc(O)cc(-c3ncc4c(N5CC6CCC(C5)N6)nc(OCC56CCCN5CC(F)C6)nc4c3F)c12 (stereo unspecified) + Nc1ccc(C#CCN(C(=O)Cc2ncc(C(F)(F)F)cc2C(F)(F)F)c2ccc(F)cc2)nn1
- IC50 (second compound 0.0316 µM): 5750 nM
- IC50 (second compound 0.1 µM): > 10000 nM
- IC50 (second compound 0.316 µM): 2920 nM
- IC50 (second compound 1 µM): 2850 nM
- IC50 (second compound 3.16 µM): > 10000 nM
- IC50 (second compound 10 µM): 2940 nM
- viability, T/C [1]: 97.5%
- viability, T/C [2]: 104%
- viability, T/C [3]: 84.6%
- viability, T/C [4]: 74.1%
- viability, T/C [5]: 65%
- viability, T/C [6]: 38.4%
- viability, T/C [7]: 97.9%
- viability, T/C [8]: 84.8%
- viability, T/C [9]: 90.4%
- viability, T/C [10]: 97.4%
- viability, T/C [11]: 52.1%
- viability, T/C [12]: 53.6%
- viability, T/C [13]: 83.7%
- viability, T/C [14]: 114%
- viability, T/C [15]: 92%
- viability, T/C [16]: 68.2%
- viability, T/C [17]: 52%
- viability, T/C [18]: 42.1%
- viability, T/C [19]: 81.4%
- viability, T/C [20]: 111%
- viability, T/C [21]: 92.1%
- viability, T/C [22]: 73.4%
- viability, T/C [23]: 48.6%
- viability, T/C [24]: 41.8%
- viability, T/C [25]: 105%
- viability, T/C [26]: 99.6%
- viability, T/C [27]: 66.9%
- viability, T/C [28]: 66.4%
- viability, T/C [29]: 61.1%
- viability, T/C [30]: 67.2%
- viability, T/C [31]: 108%
- viability, T/C [32]: 96.7%
- viability, T/C [33]: 76.2%
- viability, T/C [34]: 63.6%
- viability, T/C [35]: 43%
- viability, T/C [36]: 48.9%

SMILES: CC(=O)O[C@H]1C(=O)[C@@]2(C)[C@H]([C@H](OC(=O)c3ccccc3)[C@]3(O)C[C@H](OC(=O)[C@H](O)[C@@H](NC(=O)c4ccccc4)c4ccccc4)C(C)=C1C3(C)C)[C@]1(OC(C)=O)CO[C@@H]1C[C@@H]2O + Cc1cccc(N(C)C(=O)C2C(O)CCN2c2nc(C)cc(C(F)(F)F)c2C#N)c1
- IC50 (second compound 0.0316 µM): < 9.49 nM
- IC50 (second compound 0.1 µM): < 9.49 nM
- IC50 (second compound 0.316 µM): < 9.49 nM
- IC50 (second compound 1 µM): < 9.49 nM
- IC50 (second compound 3.16 µM): < 9.49 nM
- IC50 (second compound 10 µM): < 9.49 nM
- viability, T/C (second compound 0.0316 µM, first compound 0.00949 µM): 35.9%
- viability, T/C (second compound 0.0316 µM, first compound 0.03 µM): 21.7%
- viability, T/C (second compound 0.0316 µM, first compound 0.0949 µM): 16.1%
- viability, T/C (second compound 0.0316 µM, first compound 0.3 µM): 15.5%
- viability, T/C (second compound 0.0316 µM, first compound 0.949 µM): 19.6%
- viability, T/C (second compound 0.0316 µM, first compound 3 µM): 18.6%
- viability, T/C (second compound 0.1 µM, first compound 0.00949 µM): 38.3%
- viability, T/C (second compound 0.1 µM, first compound 0.03 µM): 20.5%
- viability, T/C (second compound 0.1 µM, first compound 0.0949 µM): 13.9%
- viability, T/C (second compound 0.1 µM, first compound 0.3 µM): 13.2%
- viability, T/C (second compound 0.1 µM, first compound 0.949 µM): 19.7%
- viability, T/C (second compound 0.1 µM, first compound 3 µM): 15.4%
- viability, T/C (second compound 0.316 µM, first compound 0.00949 µM): 35.3%
- viability, T/C (second compound 0.316 µM, first compound 0.03 µM): 21.7%
- viability, T/C (second compound 0.316 µM, first compound 0.0949 µM): 16.7%
- viability, T/C (second compound 0.316 µM, first compound 0.3 µM): 19%
- viability, T/C (second compound 0.316 µM, first compound 0.949 µM): 21.5%
- viability, T/C (second compound 0.316 µM, first compound 3 µM): 16%
- viability, T/C (second compound 1 µM, first compound 0.00949 µM): 34.2%
- viability, T/C (second compound 1 µM, first compound 0.03 µM): 19.4%
- viability, T/C (second compound 1 µM, first compound 0.0949 µM): 15.6%
- viability, T/C (second compound 1 µM, first compound 0.3 µM): 16.9%
- viability, T/C (second compound 1 µM, first compound 0.949 µM): 18.6%
- viability, T/C (second compound 1 µM, first compound 3 µM): 16%
- viability, T/C (second compound 3.16 µM, first compound 0.00949 µM): 38.3%
- viability, T/C (second compound 3.16 µM, first compound 0.03 µM): 17.8%
- viability, T/C (second compound 3.16 µM, first compound 0.0949 µM): 15.4%
- viability, T/C (second compound 3.16 µM, first compound 0.3 µM): 16%
- viability, T/C (second compound 3.16 µM, first compound 0.949 µM): 19.2%
- viability, T/C (second compound 3.16 µM, first compound 3 µM): 15.8%
- viability, T/C (second compound 10 µM, first compound 0.00949 µM): 31.6%
- viability, T/C (second compound 10 µM, first compound 0.03 µM): 17.8%
- viability, T/C (second compound 10 µM, first compound 0.0949 µM): 12.4%
- viability, T/C (second compound 10 µM, first compound 0.3 µM): 14.9%
- viability, T/C (second compound 10 µM, first compound 0.949 µM): 18.1%
- viability, T/C (second compound 10 µM, first compound 3 µM): 14.4%

SMILES: CC1COCCN1c1cc(C2(O)CC3CCC(C2)O3)c2cnn(-c3ccn[nH]3)c2n1 (stereo unspecified) + Nc1ccc(C#CCN(C(=O)Cc2ncc(C(F)(F)F)cc2C(F)(F)F)c2ccc(F)cc2)nn1
- IC50 (second compound 0.0316 µM): 74.7 nM
- IC50 (second compound 0.1 µM): 171 nM
- IC50 (second compound 0.316 µM): 102 nM
- IC50 (second compound 1 µM): 157 nM
- IC50 (second compound 3.16 µM): 125 nM
- IC50 (second compound 10 µM): 122 nM
- viability, T/C [1]: 71.3%
- viability, T/C [2]: 42.2%
- viability, T/C [3]: 28%
- viability, T/C [4]: 19.2%
- viability, T/C [5]: 15.8%
- viability, T/C [6]: 12.8%
- viability, T/C [7]: 83.8%
- viability, T/C [8]: 62.7%
- viability, T/C [9]: 35.5%
- viability, T/C [10]: 18.7%
- viability, T/C [11]: 15.4%
- viability, T/C [12]: 12.5%
- viability, T/C [13]: 107%
- viability, T/C [14]: 44.9%
- viability, T/C [15]: 34.7%
- viability, T/C [16]: 19.6%
- viability, T/C [17]: 18.1%
- viability, T/C [18]: 9.14%
- viability, T/C [19]: 75.9%
- viability, T/C [20]: 62.8%
- viability, T/C [21]: 29.9%
- viability, T/C [22]: 22.5%
- viability, T/C [23]: 15.3%
- viability, T/C [24]: 9.68%
- viability, T/C [25]: 99.3%
- viability, T/C [26]: 55.3%
- viability, T/C [27]: 28.2%
- viability, T/C [28]: 21.3%
- viability, T/C [29]: 16.1%
- viability, T/C [30]: 11.8%
- viability, T/C [31]: 94.7%
- viability, T/C [32]: 54.4%
- viability, T/C [33]: 29.5%
- viability, T/C [34]: 15.7%
- viability, T/C [35]: 18.7%
- viability, T/C [36]: 10.8%
